Test results reported in patent US10183015B2, “Heterocyclic compounds and methods of use” (Medivation Technologies LLC, priority 2015, dated 2019).
Where “and” joins values, the source holds several entries; their conditions need not be identical. Equal values may be shown once.

How the values were obtained:
Assay type in all cases: in vivo
INSIG1 = assay: Short-term Paigen-diet NASH mouse model: hepatic INSIG1 gene expression (RT-qPCR); details: liver, 21 days; for DDct: INSIG1 Dct relative to vehicle mean; for Dct: INSIG1 minus 18S; for 2DDct: INSIG1 relative expression to vehicle group, normalized to 18S; for INSIG1: raw RT-qPCR value
Protocol: To investigate whether Compound #37 prevents the development of pathology associated with NASH and steatosis in an acute exploratory disease model, a study was conducted using a diet-induced acute liver steatosis model in mice. As described below, in this study, C57BL/6J mice were initiated on the Paigen diet and simultaneously treated with Compound #37 (5, 20, and 40 mg/kg/day) or vehicle control (20% HPβCD 10 mL/kg/day) by oral gavage for 21 days.
After acclimation, 8-week old male C57Bl/6J mice (Charles River) weighing about 25 g were randomized in 4 groups according their body weight and treated once daily around noon by oral gavage with vehicle, or Compound #37 at various for 21 days as follows: Group 1: vehicle-20% (2-hydroxypropyl)-β-cyclodextrin (HP-β-CD) (n=10); Group 2: Compound #37, 5 mg/kg (n=10) Group 3: Compound #37, 20 mg/kg (n=10) Group 4: Compound #37, 40 mg/kg (n=10). During the treatment period, body weight and food intake (measured over 24h) were measured 3 times per week and once a week, respectively. During the acclimation, all mice were fed a standard diet (Special Diets Services RM1 (E), product no. 801492) and tap water ad libitum. After the acclimation period, mice were fed until the end of the experiment with a 60% high fat Paigen diet (60 kcal % fat, 1.25% cholesterol, and 0.5% cholate; D11061901, Research Diet) and tap water ad libitum.
Gene expression analysis. Hepatic expression levels of genes involved in lipid metabolism (FAS, SREBP1, ACC1, SCD1), cholesterol metabolism (HMG-CoAR, LDLR), SREBP proteolysis (SCAP, INSIG1), ER stress (PERK), oxidative stress (NRF2), inflammation (MCP-1), and fibrosis (collagen 1α1) were quantified by RTqPCR. Expression level was normalized to 18S gene expression and relative expression to vehicle group was calculated with the […] method.

[1] = Short-term Paigen-diet NASH mouse model: body weight, food intake, mortality
Source text: Results. […] Mice were maintained on specific diet and were sacrificed after 9 days of diet.

[2] = system: diet-induced NASH obese insulin resistant mice; assay: DIN mouse model: blood glucose, plasma insulin, HOMA-IR; details: for HOMA-IR index reduction / HOMA-IR day 0 / blood glucose day 0 / plasma insulin day 0: 20 mg/kg; for HOMA-IR day 0 / blood glucose day 0 / plasma insulin day 0: day 0 (baseline); for HOMA-IR day 42 / blood glucose day 42 / plasma insulin day 42: day 42, 20 mg/kg; for HOMA-IR day 70 / blood glucose day 70 / plasma insulin day 70: day 70, 20 mg/kg;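 on blood glucose day 0: blood glucose in mg/dL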;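 on blood glucose day 42: blood glucose in mg/dL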;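 on blood glucose day 70: blood glucose in mg/dL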
Protocol: Male C57Bl/6J mice (8 weeks old) were housed in enriched ventilated cages (31×12.5×12.7 cm) throughout the experimental phase. Animals' cages litters were changed at least once a week. Animal were housed 5 per cage on inverted 12-hour light cycle (at 09:00 am lights off), 22±2° C. and 55±10% relative humidity. The acclimation period was 20 days. During the acclimation period, all mice were fed a standard diet (RM1 (E) 801492, SDS) and tap water ad libitum. After the acclimation period, mice were fed with the DIN diet (60% fat, cholesterol enriched) and fructose-enriched tap water ad libitum until the end of the experiment.
At 6 weeks of diet, mice were 4-hour fasted (09:00 am to 1:00 pm) and blood (150 μl/EDTA) was collected at 01:00 pm by retro-orbital bleeding under isoflurane anesthesia. Mice were then allocated in 2 homogenous groups (n=12/group) according to their plasma levels of ALT (average levels: 685U/L), AST (average levels: 627U/L) and HOMA-IR index (average value: 4.7), into 2 homogenous groups (see values at day 0 in Tables 15A and 15B ALT/AST and Tables 16A and 16B for HOMA-IR). Mice were then treated once daily by oral gavage with vehicle (Group 1) or Compound #37 at 20 mg/kg (Group 2) for 70 days.
To investigate whether Compound #37 improves pre-existing steatosis/NASH pathology, a study was conducted using a 16-week diet-induced NASH mouse model. In this model, mice develop steatosis that progresses with inflammation and fibrosis that mimic many of the observed pathologies in human nonalcoholic fatty liver disease (NAFLD) and NASH (Hebbard & George, 2010). For 6 weeks, mice were fed a high-fat, high-cholesterol diet and provided drinking water containing fructose to induce liver pathology (Charlton et al, 2011). After 6 weeks, the mice were divided into 2 groups with similar mean aspartate aminotransferase (AST) and alanine aminotransferase (ALT) values (n=12 mice), although it should be noted that AST and ALT concentrations within both groups were higher and with greater variability than anticipated (e.g., mean ALT 677 U/L [SD, 401 U/L] in the vehicle control group and 693 U/L [SD, 365 U/L] in the Compound #37 group). After the animals were divided into 2 groups, the diet was continued for 10 additional weeks during which time 1 group received vehicle and the other was treated with 20 mg/kg/day Compound #37.

[3] = Compound #37 5 mg/kg, group mean, n=10
[4] = Compound #37 5 mg/kg, individual animals, 5 mg/kg
[5] = Compound #37 20 mg/kg, group mean, n=6
[6] = Compound #37 20 mg/kg, individual animals, 20 mg/kg

In the case of `CC(C)Cc1cc(-c2nc(-c3ccc(NS(=O)(=O)C(F)(F)F)cc3Cl)cs2)ccn1` [Compound 37, N-(3-chloro-4-(2-(2-isobutylpyridin-4-yl)thiazol-4-yl)phenyl)-1,1,1-trifluoromethanesulfonamide], the DDct (INSIG1; [3]) is reported as 0.28, the DDct (INSIG1; [4]) is reported as −0.58 and 0.21 and 0.48 and −0.03 and 0.34 and 1.45 and 0.09 and 0.52 and 0.32 and 0.05 and the DDct (INSIG1; [5]) is reported as 0.15. The DDct (INSIG1; [6]) was 0.5 and 0.75 and 0.51 and −0.67 and 0.62 and −0.76, the Dct (INSIG1; [3]) was 12 and the Dct (INSIG1; [4]) was 11.1 and 11.89 and 12.16 and 11.65 and 12.02 and 13.13 and 11.77 and 12.2 and 12 and 11.73. The Dct (INSIG1; [5]) was 11.8, the Dct (INSIG1; [6]) was 12.18 and 12.43 and 12.19 and 11.01 and 12.3 and 10.92 and the 2DDct (INSIG1; [3]) was 0.87. For the same compound, the 2DDct (INSIG1; [4]) was 1.5 and 0.87 and 0.72 and 1.02 and 0.79 and 0.37 and 0.94 and 0.7 and 0.8 and 0.97, the 2DDct (INSIG1; [5]) was 0.99 and the 2DDct (INSIG1; [6]) was 0.71 and 0.6 and 0.7 and 1.6 and 0.65 and 1.7. For the same compound, the INSIG1 (INSIG1; [3]) was 24.2, the INSIG1 (INSIG1; [4]) was 24.56 and 25 (2×) and 23.77 and 24.05 and 26.48 and 23.37 and 23.99 and 23.14 and 22.85 and the INSIG1 (INSIG1; [5]) was 24. For the same compound, the INSIG1 (INSIG1; [6]) was 25.09 and 24.72 and 24.39 and 24.04 and 23.79 and 22.18, the “differences in weight vs vehicle control at end of 3-week dosing period” value ([1]; 5 mg/kg/day and 20 mg/kg/day, surviving animals) was “no differences in weight” and the mice died ([1]; 20 mg/kg/day, group of 10 mice (1 on day 7, 2 on day 9, 1 on day 11)) was 4 mice. For the same compound, the “death of additional mice by day 9” value ([1]; 40 mg/kg/day, group of 10 mice) was 3 mice, the “death of mice by day 7” value ([1]; 40 mg/kg/day, group of 10 mice) was 3 mice and the mean weight loss ([1]; 40 mg/kg/day, over 4 days of treatment) was over 20%. For the same compound, the mice died ([1]; mouse, in vivo) was “No mice died”, the HOMA-IR index reduction ([2]; day 42, not significant) was 50% and the HOMA-IR index reduction ([2]; day 70, not significant) was 40%. The “HOMA-IR day 0” value ([2]; group mean, n 12) was 4.8 [mM × μU/mL]/22.5, the “blood glucose day 0” value ([2]; group mean, n 12) was 104 mg/dL and the “plasma insulin day 0” value ([2]; group mean, n 12) was 17 μU/mL. For the same compound, the “HOMA-IR day 0” value ([2]; individual animals) was 2.7 [mM × μU/mL]/22.5 and 4.1 [mM × μU/mL]/22.5 and 23.6 [mM × μU/mL]/22.5 and 2.1 [mM × μU/mL]/22.5 (2×) and 2.3 [mM × μU/mL]/22.5 (2×) and 1.9 [mM × μU/mL]/22.5 and 1.8 [mM × μU/mL]/22.5 and 3.8 [mM × μU/mL]/22.5 and 1.6 [mM × μU/mL]/22.5 and 8.8 [mM × μU/mL]/22.5, the “blood glucose day 0” value ([2]; individual animals) was 97 mg/dL and 113 mg/dL (2×) and 123 mg/dL and 106 mg/dL and 79 mg/dL and 95 mg/dL and 114 mg/dL and 102 mg/dL and 89 mg/dL and 112 mg/dL and 103 mg/dL and the “plasma insulin day 0” value ([2]; individual animals) was 11.3 μU/mL and 14.7 μU/mL and 77.6 μU/mL and 8.1 μU/mL and 11.9 μU/mL and 6.9 μU/mL and 7.5 μU/mL (2×) and 13.6 μU/mL and 8.4 μU/mL and 31.9 μU/mL and 9 μU/mL. For the same compound, the “HOMA-IR day 42” value ([2]; group mean, n 12) was 3.7 [mM × μU/mL]/22.5, the “blood glucose day 42” value ([2]; group mean, n 12) was 133 mg/dL and the “plasma insulin day 42” value ([2]; group mean, n 12) was 11.5 μU/mL. For the same compound, the “HOMA-IR day 42” value ([2]; individual animals) was 3.8 [mM × μU/mL]/22.5 (2×) and 3.3 [mM × μU/mL]/22.5 and 5.0 [mM × μU/mL]/22.5 and 7.7 [mM × μU/mL]/22.5 and 2.8 [mM × μU/mL]/22.5 (3×) and 1.9 [mM × μU/mL]/22.5 and 3.7 [mM × μU/mL]/22.5 and 3.5 [mM × μU/mL]/22.5 and 3.4 [mM × μU/mL]/22.5, the “blood glucose day 42” value ([2]; individual animals) was 133 mg/dL and 139 mg/dL (2×) and 112 mg/dL and 126 mg/dL and 128 mg/dL and 132 mg/dL and 131 mg/dL and 138 mg/dL and 151 mg/dL and 140 mg/dL and 127 mg/dL and the “plasma insulin day 42” value ([2]; individual animals) was 11.6 μU/mL and 9.5 μU/mL and 18.0 μU/mL and 24.8 μU/mL and 8.9 μU/mL and 11.8 μU/mL and 5.8 μU/mL and 8.2 μU/mL (2×) and 10.0 μU/mL and 10.2 μU/mL and 10.7 μU/mL. For the same compound, the “HOMA-IR day 70” value ([2]; group mean, n 11) was 4.5 [mM × μU/mL]/22.5, the “blood glucose day 70” value ([2]; group mean, n 11) was 130 mg/dL and the “plasma insulin day 70” value ([2]; group mean, n 11) was 13.7 μU/mL. The “HOMA-IR day 70” value ([2]; individual animals) was 7.5 [mM × μU/mL]/22.5 and 2.6 [mM × μU/mL]/22.5 and 6.0 [mM × μU/mL]/22.5 and 5.8 [mM × μU/mL]/22.5 and 3.9 [mM × μU/mL]/22.5 and 2.8 [mM × μU/mL]/22.5 and 6.5 [mM × μU/mL]/22.5 and 2.5 [mM × μU/mL]/22.5 and 3.8 [mM × μU/mL]/22.5 and 3.1 [mM × μU/mL]/22.5 and 4.5 [mM × μU/mL]/22.5, the “blood glucose day 70” value ([2]; individual animals) was 138 mg/dL and 132 mg/dL and 135 mg/dL and 157 mg/dL and 136 mg/dL and 124 mg/dL and 127 mg/dL and 100 mg/dL and 114 mg/dL and 130 mg/dL and 141 mg/dL and the “plasma insulin day 70” value ([2]; individual animals) was 21.9 μU/mL and 8.0 μU/mL and 18.1 μU/mL and 15.1 μU/mL and 11.5 μU/mL and 9.3 μU/mL and 20.6 μU/mL and 10.3 μU/mL and 13.4 μU/mL and 9.8 μU/mL and 12.9 μU/mL.
